The text below walks through data of patent publication US5182279A, “Benzothienopyrazinedione compounds and their preparation and use” (Novo Nordisk A/S, priority 1990, dated 1993).

Experiment [1] concerns the target T1, glycine site of the NMDA receptor complex (Rattus norvegicus, UniProt P35439).
T1 construct: thawed rat cerebral cortical membrane homogenate; from tissue; host or cells: rat cerebral cortical membrane homogenate
As to the kind of experiment: [3H]-glycine binding (Test 1). The settings on record: displacement of 50% of specific [3H]-glycine binding; rat cerebral cortical membrane homogenate, pH 7.1, 0° C., 10 min. Here is the method:
The glycine site binding activity of these compounds of the present invention can be illustrated by determining their capability for displacing radioactively labelled glycine from the glycine site.
The displacement activity of the compounds may be shown by determining the IC50 value which represents the concentration (μM) which causes a displacement of 50% of the specific binding of [^3 H]-glycine.
^3 H]-glycine binding (Test 1)
1 ml of thawed rat cerebral cortical membrane homogenate in HEPES-Tris (5 mM) and MgCl2 (1 mM) pH 7.1 were incubated at 0° C. for 10 min. with […] and the test compound and buffer. Non-specific binding was determined by incubating with D-serine (1 mM final concentration). The binding reaction was terminated by centrifugation at 15,000 ×g at 4° C. followed by washing of the pellet with three times 3 ml of ice-cold buffer. Bound radioactivity was measured by scintillation counting. IC50 was determined by Hill analysis of at least four concentrations of test compound.

The test system of experiment [2] is NMDA stimulated [3H]-GABA release from cultured mouse cerebral cortex interneurons. Kind of experiment: Inhibition of NMDA stimulated [3H]-GABA release from cultured mouse cerebral cortex interneurons (Test 3). In kind it is cell-based. The settings on record: inhibits 50% of NMDA induced [3H]-GABA release, 3 μg/ml NMDA, 37° C. From the text:
The NMDA antagonistic properties of the compounds is illustrated by determining their capability to antagonize NMDA stimulated [^3 H]-GABA release from cultured mouse cortex neurons. The NMDA antagonistic activity of the compounds may be shown by determining the IC50 value, which represents the concentration (μM) which inhibits 50% of NMDA induced [^3H]-GABA release.
Inhibition of NMDA stimulated [^3 H]-GABA release from cultured mouse cerebral cortex interneurons (Test 3)
Release experiments are performed using the model described by Drejer et al. (Life Sci. 38, 2077 (1986)). To cerebral cortex interneurons cultured in petri dishes (30 mm) are added 100 μg/ml 3-vinyl-GABA one hour before the experiment in order to inhibit degradation of GABA in the neurons. 30 min. before the experiment 5 μCi [^3 H]-GABA added to each culture and after this preloading period the cells are washed twice with HEPES buffered saline (HBS) containing 10 mM HEPES, 135 mM NaCl, 5 mM KCl, 0.6 mM MgSO4, 1.0 mM CaCl2 and 6 mM D-glucose; pH 7 and placed in a superfusion system. This system consists of a peristaltic pump continuously delivering thermostated 37° C. superfusion medium from a reservoir to the top of a slightly tilted petri dish. The cell monolayer at the bottom of the dish is covered with a piece of nylon mesh to facilitate dispersion of medium over the cell layer. The medium is continuously collected from the lower part of the dish and delivered to a fraction collector. Initially, the cells are superfused with HBS for 15 min. (flow rate 2 ml/min.). Then cells are stimulated for 30 sec. every 4 min. by changing the superfusion medium from HBS to a corresponding medium containing NMDA and antagonist according to the following scheme:
Stimulation no. 1: 3 μg/ml NMDA
Stimulation no. 2: 3 μg/ml NMDA +0.3 μg/ml antagonist
Stimulation no. 3: 3 μg/ml NMDA +3.0 μg/ml antagonist
The release of [^3 H]-GABA in the presence of NMDA is corrected for the mean basal release before and after stimulation. The stimulated release in the presence of antagonist is expressed relative to the stimulated release by NMDA alone and the IC50 value is calculated.

In experiment [3] the target is T1, glycine site of the NMDA receptor complex. As to the kind of experiment: Antagonism of glycine enhanced [3H]-MK-801 binding (Test 2). The settings on record: dissociation constant of receptor-antagonist complex, Schild analysis; rat cerebral membrane homogenate, pH 7.40, 23° C., 60 min, 1 nM [3H]-MK-801, 300 nM glutamate. As to the method:
The glycine antagonism is measured by determining the Ki value which represents the dissociation constant (μM) of the receptor-antagonist complex.
Antagonism enhanced [^3 H]-MK-801 binding (Test 2)
1 ml of thawed and extensively washed rat cerebral membrane homogenate in HEPES-NaOH (20 mM) pH 7.40 were incubated at 23° C. for 60 min. with 25μl[^3 H]-MK-801 (1 nM final concentration), 25 μl glutamate (300 nM final concentration), test compound in concentrations corresponding to 0, 0.5, 2 and 5 times the IC50 value from the [^3 H]-glycine binding assay (test 1) for each concentration of glycine (10; 100; 1,000; 10,000 and 100,000 nM final concentration). The binding reaction was terminated by adding 5 ml of ice- cold buffer followed by rapid filtration through Whatman GF/C glass fiber filters and 5 ml wash with ice-cold buffer. Bound radioactivity was measured by scintillation counting. Ki values were determined by Schild analysis of the data using
log(dosis ration-1)=log[Inhibitor]-log(Ki)

The subject of experiment [4] is glycine site coupled to the NMDA ionophor complex. The settings on record: literature, in words; cited from earlier work.

Each structure is given as a SMILES string. pIC50, pKi: −log10 of the molar value.

`O=c1[nH]c2sc3cc(Br)c(F)cc3c2[nH]c1=O` [Example 14, 7-Bromo-8-fluoro[1]benzothieno[2,3-b]pyrazine-2,3-(1H,4H)-dione] gave a pIC50 in experiment [1] of 6.27.

In the case of `NC1CCN(O)C1=O` (centres unmarked) [HA-966, 3-amino-1-hydroxy-2-pyrrolidone, reference compound], the figures for the pIC50 in experiment [2] and in experiment [1] were 4.60 and 4.89, respectively. Moreover, the pKi in experiment [3] was 4.80. The “activity at the glycine site” value in experiment [4] was “weak antagonists”.

`O=c1[nH]c2sc3ccc(F)cc3c2[nH]c1=O` [Example 1, 8-Fluoro[1]benzothieno[2,3-b]pyrazine-2,3(1H,4H)-dione]: the pIC50 was 7.41 in experiment [2] and 7.28 in experiment [1]. In addition, the pKi in experiment [3] was 8.10.

Regarding `O=c1[nH]c2sc3c(Cl)cccc3c2[nH]c1=O` [Example 12, 6-Chloro[1]benzothieno[2,3-b]pyrazine-2,3(lH,4H)-dione], in experiment [3], the pKi was 7.39. This molecule also showed a pIC50 in experiment [1] of 6.74.

Take `O=c1[nH]c2sc3ccc(Cl)cc3c2[nH]c1=O` [Example 2, 8-Chloro[1] benzothieno[2,3-b]pyrazine-2,3(1H,4H)-dione]: the pIC50 is 7.96 in experiment [2] and 7.25 in experiment [1]. In experiment [3], the pKi was 7.40.

Turning to `N[C@@H]1CONC1=O` [D-cycloserine], the “activity at the glycine site” value in experiment [4] was “partial agonists”.

With `O=c1[nH]c2sc3cc(Cl)ccc3c2[nH]c1=O` [Example 5, 7-Chloro[1]benzothieno[2,3-b]pyrazine-2,3(1H,4H)-dione], in experiment [1], the pIC50 is 5.22.

Turning to `O=C(O)c1cc(O)c2ccc(Cl)cc2n1` [Example 7-Cl-Kyn, 7-chlorokynurenic acid, reference compound], the pIC50 is 5.89 in experiment [2] and 5.85 in experiment [1]. Further, the pKi in experiment [3] was 6.15. Also, in experiment [4], the “activity at the glycine site” value is reported as “quite strong antagonists”.

For `N#Cc1cc2[nH]c(=O)c(=O)[nH]c2cc1[N+](=O)[O-]` [CNQX, 6-cyano-7-nitroquinoxaline 2,3-dione], in experiment [4], the “activity at the glycine site” value was “weak antagonists”.

With `O=c1[nH]c2sc3ccc(I)cc3c2[nH]c1=O` [Example 8, 8-Iodo[1]benzothieno[2,3-b]pyrazine-2,3(1H,4H)-dione], the pIC50 was 6.95 in experiment [2] and 6.00 in experiment [1].

With `O=c1[nH]c2sc3c(F)cccc3c2[nH]c1=O` [Example 13, 6-Fluoro[1]benzothieno[2,3-b]pyrazine-2,3(lH,4H)-dione], the pIC50 in experiment [1] is 6.58.

As to `COc1cccc2c1sc1[nH]c(=O)c(=O)[nH]c12` [Example 10, 6-Methoxy[1]benzothieno[2,3-b]pyrazine-2,3(lH,4H)-dione], the pIC50 in experiment [1] was 4.97.

`N[C@H](CO)C(=O)O` [D-serine]: in experiment [4], the “activity at the glycine site” value is recorded as “strong agonist activity”.

With `O=c1[nH]c2sc3ccccc3c2[nH]c1=O` [Example 3, [1]Benzothieno[2,3-b]pyrazine-2,3(1H,4H)-dione], the pIC50 in experiment [2] is 7.07; in experiment [1], 6.55. The pKi in experiment [3] was 6.68.

Molecule `COc1ccc2c(c1)sc1[nH]c(=O)c(=O)[nH]c12` [Example 11, 7-Methoxy[1]benzothieno[2,3-b]pyrazine-2,3(lH,4H)-dione] showed a pIC50 in experiment [1] of 4.82.

For `C[C@@H](N)C(=O)O` [D-alanine], in experiment [4], the “activity at the glycine site” value is “strong agonist activity”.

As to `O=c1[nH]c2sc3ccc(Br)cc3c2[nH]c1=O` [Example 4, 8-Bromo[1]benzothieno[2,3-b]pyrazine-2,3(lH,4H)-dione], in experiment [3], the pKi is 7.74. In experiment [1], the pIC50 is 7.16.

In turn, `O=c1[nH]c2sc3ccc(C(F)(F)F)cc3c2[nH]c1=O` [Example 9, 8-Trifluoromethyl[1]benzothieno[2,3-b]pyrazine-2,3-(1H, 4H)-dione] gave a pIC50 in experiment [1] of 5.15.

Regarding `O=c1[nH]c2sc3c(Cl)cc(Cl)cc3c2[nH]c1=O` [Example 7, 6,8-Dichloro[1]benzothieno[2,3-b]pyrazine-2,3(1H,4H)dione], the negative-log IC50 (pIC50) is 7.17 in experiment [2] and 6.51 in experiment [1].

By pIC50 is commonly meant the IC50 on a negative log10 scale, so that one unit is a factor of ten. A high value points to a small IC50. As a reminder, the pKi is the Ki on a negative log10 scale, so that one unit is a factor of ten.
